Target: human CXCR3A (Homo sapiens (Human), UniProt P49682)
Test: FLIPR assay
Assay type: cell-based
Conditions: CHO-K1 cells expressing the human CXCR3A coupled to Galpha(16); CXCL10 agonist 20 nM; Fluo-4-AM fluorescence; mean values if determined several times
Procedure: The bioactivity of compounds is tested in a fluorometric imaging plate reader (FLIPR: Molecular Devices) using engineered CHO-K1 cells expressing the human CXCR3A coupled to a G protein (Galpha(16)). Cells are plated the day prior to bioassay in F12 medium supplemented with 10% FBS and G418 and hygromycin antibiotics to maintain recombinant selection. At the day of bioassay, cells are washed and dye loaded for one hour with Fluo-4-AM (Invitrogen) in Hanks Balanced Salt Solution (Invitrogen), buffered with 20 mM Hepes at pH 7.4 and sodium bicarbonate (0.015%), containing 5 mM probenecid. […] Cells are washed free of excess dye and 60 microliter of wash buffer is added. Stock solutions of test compounds are made up at a concentration of 10 mM in DMSO, and serially diluted in dilution buffer to concentrations required for inhibition dose response curves. After a 10 minute incubation period at 37° C., 10 microliters of each compound dilution are transferred from a compound plate to the plate containing the recombinant cells in the FLIPR instrument according to the manufacturer's instructions. Following basal readings, 10 microliter CXCL10 agonist at a concentration of 20 nM (from Peprotech) is added, again using the FLIPR instrument. Changes in fluorescence are monitored before and after addition of the test compounds. Emission peak values above base level after CXCL10 addition are exported after base line subtraction. The program XLfit is used to fit the data to a single site dose response curve and to calculate IC50 values.

Sequence of human CXCR3A (P49682 whole entry): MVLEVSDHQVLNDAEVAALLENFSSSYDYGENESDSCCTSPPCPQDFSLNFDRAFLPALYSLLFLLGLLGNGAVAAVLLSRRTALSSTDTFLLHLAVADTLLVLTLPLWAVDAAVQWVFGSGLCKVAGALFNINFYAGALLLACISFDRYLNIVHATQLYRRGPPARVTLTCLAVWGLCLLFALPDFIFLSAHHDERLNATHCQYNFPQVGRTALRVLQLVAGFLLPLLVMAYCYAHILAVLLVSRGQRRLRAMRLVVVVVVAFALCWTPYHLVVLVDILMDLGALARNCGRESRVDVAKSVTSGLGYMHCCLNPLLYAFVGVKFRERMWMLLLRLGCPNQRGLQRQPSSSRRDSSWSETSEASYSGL

Structure (SMILES) | IC50
Cc1cc2cccnc2n1CC(=O)N1CCN(c2scnc2-c2nc3ccccc3[nH]2)CC1 [Example 66, 1-{4-[4-(1H-Benzoimidazol-2-yl)-thiazol-5-yl]-piperazin-1-yl}-2-(2-methyl-pyrrolo[2,3-b]pyridin-1-yl)-ethanone] | 31 nM
Cc1cn(CC(=O)N2CCN(c3scnc3-c3nc4ccccc4[nH]3)CC2)c2ncccc12 [Example 67, 1-{4-[4-(1H-Benzoimidazol-2-yl)-thiazol-5-yl]-piperazin-1-yl}-2-(3-methyl-pyrrolo[2,3-b]pyridin-1-yl)-ethanone] | 9 nM
COc1ccc2ccn(CC(=O)N3CCN(c4scnc4-c4nc5ccccc5[nH]4)CC3)c2n1 [Example 69, 1-{4-[4-(1H-Benzoimidazol-2-yl)-thiazol-5-yl]-piperazin-1-yl}-2-(6-methoxy-pyrrolo[2,3-b]pyridin-1-yl)-ethanone] | 69 nM
Cc1ccc2ccn(CC(=O)N3CCN(c4scnc4-c4nc5ccccc5[nH]4)CC3)c2n1 [Example 70, 1-{4-[4-(1H-Benzoimidazol-2-yl)-thiazol-5-yl]-piperazin-1-yl}-2-(6-methyl-pyrrolo[2,3-b]pyridin-1-yl)-ethanone] | 13 nM
Cn1c(=O)n(CC(=O)N2CCN(c3scnc3-c3nc4ccc(CO)cc4[nH]3)CC2)c2ccccc21 [Example 76, 1-(2-{4-[4-(6-Hydroxymethyl-1H-benzoimidazol-2-yl)-thiazol-5-yl]-piperazin-1-yl}-2-oxo-ethyl)-3-methyl-1,3-dihydro-benzoimidazol-2-one] | 10 nM
Cc1ccccc1-c1nc(-c2nc3ccccc3[nH]2)c(N2CCN(C(=O)Cn3cnc4cccnc43)[C@H](C)C2)s1 [Example 81, 1-{(R)-4-[4-(1H-Benzoimidazol-2-yl)-2-o-tolyl-thiazol-5-yl]-2-methyl-piperazin-1-yl}-2-imidazo[4,5-b]pyridin-3-yl-ethanone] | 23 nM
COc1ccccc1-c1nc(-c2nc3ccccc3[nH]2)c(N2CCN(C(=O)Cn3cnc4cccnc43)[C@H](C)C2)s1 [Example 82, 1-{(R)-4-[4-(1H-Benzoimidazol-2-yl)-2-(2-methoxy-phenyl)-thiazol-5-yl]-2-methyl-piperazin-1-yl}-2-imidazo[4,5-b]pyridin-3-yl-ethanone] | 96 nM
C[C@@H]1CN(c2scnc2-c2nc3cc(C(C)(C)C)ccc3[nH]2)CCN1C(=O)Cn1cnc2cccnc21 [Example 86, 1-{(R)-4-[4-(5-tert-Butyl-1H-benzoimidazol-2-yl)-thiazol-5-yl]-2-methyl-piperazin-1-yl}-2-imidazo[4,5-b]pyridin-3-yl-ethanone] | 1 nM
C[C@@H]1CN(c2scnc2-c2nc3cc(Cl)c(F)cc3[nH]2)CCN1C(=O)Cn1cnc2cccnc21 [Example 89, 1-{(R)-4-[4-(5-Chloro-6-fluoro-1H-benzoimidazol-2-yl)-thiazol-5-yl]-2-methyl-piperazin-1-yl}-2-imidazo[4,5-b]pyridin-3-yl-ethanone] | 1 nM
C[C@@H]1CN(c2scnc2-c2nc3c(F)c(F)ccc3[nH]2)CCN1C(=O)Cn1cnc2cccnc21 [Example 90, 1-{(R)-4-[4-(4,5-Difluoro-1H-benzoimidazol-2-yl)-thiazol-5-yl]-2-methyl-piperazin-1-yl}-2-imidazo[4,5-b]pyridin-3-yl-ethanone] | 2 nM
C[C@@H]1CN(c2scnc2-c2nc3cc(Cl)c(C(F)(F)F)cc3[nH]2)CCN1C(=O)Cn1cnc2cccnc21 [Example 93, 1-{(R)-4-[4-(5-Chloro-6-trifluoromethyl-1H-benzoimidazol-2-yl)-thiazol-5-yl]-2-methyl-piperazin-1-yl}-2-imidazo[4,5-b]pyridin-3-yl-ethanone] | 1 nM
Cc1c(Cl)ccc2[nH]c(-c3ncsc3N3CCN(C(=O)Cn4cnc5cccnc54)[C@H](C)C3)nc12 [Example 94, 1-{(R)-4-[4-(5-Chloro-4-methyl-1H-benzoimidazol-2-yl)-thiazol-5-yl]-2-methyl-piperazin-1-yl}-2-imidazo[4,5-b]pyridin-3-yl-ethanone] | 0.5 nM
C[C@@H]1CN(c2scnc2-c2nc3c(C(F)(F)F)cccc3[nH]2)CCN1C(=O)Cn1cnc2cccnc21 [Example 95, 2-Imidazo[4,5-b]pyridin-3-yl-1-{(R)-2-methyl-4-[4-(4-trifluoromethyl-1H-benzoimidazol-2-yl)-thiazol-5-yl]-piperazin-1-yl}-ethanone] | 4 nM
C[C@@H]1CN(c2scnc2-c2nc3c(F)cccc3[nH]2)CCN1C(=O)Cn1cnc2cccnc21 [Example 97, 1-{(R)-4-[4-(4-Fluoro-1H-benzoimidazol-2-yl)-thiazol-5-yl]-2-methyl-piperazin-1-yl}-2-imidazo[4,5-b]pyridin-3-yl-ethanone] | 2 nM
C[C@@H]1CN(c2scnc2-c2nc3ccccc3n2C)CCN1C(=O)Cn1cnc2cccnc21 [Example 98, 2-Imidazo[4,5-b]pyridin-3-yl-1-{(R)-2-methyl-4-[4-(1-methyl-1H-benzoimidazol-2-yl)-thiazol-5-yl]-piperazin-1-yl}-ethanone] | 9 nM
Cn1c(=O)n(CC(=O)N2CCN(c3scnc3-c3nc4cc(OCCO)ccc4[nH]3)CC2)c2ccccc21 [Example 101, 1-[2-(4-{4-[5-(2-Hydroxy-ethoxy)-1H-benzoimidazol-2-yl]thiazol-5-yl}-piperazin-1-yl)-2-oxo-ethyl]-3-methyl-1,3-dihydro-benzoimidazol-2-one] | 14 nM
COCCOc1ccc2[nH]c(-c3ncsc3N3CCN(C(=O)Cn4c(=O)n(C)c5ccccc54)CC3)nc2c1 [Example 102, 1-[2-(4-{4-[5-(2-Methoxy-ethoxy)-1H-benzoimidazol-2-yl]-thiazol-5-yl}-piperazin-1-yl)-2-oxo-ethyl]-3-methyl-1,3-dihydro-benzoimidazol-2-one] | 14 nM
O=C(CN1CCCc2ccccc21)N1CCN(c2scnc2-c2nc3ccccc3[nH]2)CC1 [Example 105, 1-{4-[4-(1H-Benzoimidazol-2-yl)-thiazol-5-yl]-piperazin-1-yl}-2-(3,4-dihydro-2H-quinolin-1-yl)-ethanone] | 89 nM
O=C(CN1CCOc2ccccc21)N1CCN(c2scnc2-c2nc3ccccc3[nH]2)CC1 [Example 106, 1-{4-[4-(1H-Benzoimidazol-2-yl)-thiazol-5-yl]-piperazin-1-yl}-2-(2,3-dihydro-benzo[1,4]oxazin-4-yl)-ethanone] | 99 nM
O=C1CCN(CC(=O)N2CCN(c3scnc3-c3nc4ccccc4[nH]3)CC2)c2ccccc21 [Example 107, 1-(2-{4-[4-(1H-Benzoimidazol-2-yl)-thiazol-5-yl]-piperazin-1-yl}-2-oxo-ethyl)-2,3-dihydro-1H-quinolin-4-one] | 78 nM
O=C(Cn1ccc2cccc(F)c21)N1CCN(c2scnc2-c2nc3ccccc3[nH]2)CC1 [Example 108, 1-{4-[4-(1H-Benzoimidazol-2-yl)-thiazol-5-yl]-piperazin-1-yl}-2-(7-fluoro-indol-1-yl)-ethanone] | 4 nM
O=C(Cc1cccnc1)N1CCN(c2scnc2-c2nc3ccccc3[nH]2)CC1 [Example 110, 1-{4-[4-(1H-Benzoimidazol-2-yl)-thiazol-5-yl]-piperazin-1-yl}-2-pyridin-3-yl-ethanone] | 487 nM
COc1ccc(CC(=O)N2CCN(c3scnc3-c3nc4ccccc4[nH]3)CC2)c(F)c1 [Example 111, 1-{4-[4-(1H-Benzoimidazol-2-yl)-thiazol-5-yl]-piperazin-1-yl}-2-(2-fluoro-4-methoxy-phenyl)-ethanone] | 280 nM
Cn1c(=O)n(CC(=O)N2CCN(c3scnc3-c3nc4c(O)cccc4[nH]3)CC2)c2ccccc21 [Example 112, 1-(2-{4-[4-(4-Hydroxy-1H-benzoimidazol-2-yl)-thiazol-5-yl]-piperazin-1-yl}-2-oxo-ethyl)-3-methyl-1,3-dihydro-benzoimidazol-2-one] | 10 nM
C[C@@H]1CN(c2scnc2-c2nc3ccccc3[nH]2)CCN1C(=O)Cc1ccc2ccccc2c1 [Example 117, 1-{(R)-4-[4-(1H-Benzoimidazol-2-yl)-thiazol-5-yl]-2-methyl-piperazin-1-yl}-2-naphthalen-2-yl-ethanone] | 75 nM
C[C@@H]1CN(c2scnc2-c2nc3ccccc3[nH]2)CCN1C(=O)Cc1ccc2cccnc2c1 [Example 120, 1-{(R)-4-[4-(1H-Benzoimidazol-2-yl)-thiazol-5-yl]-2-methyl-piperazin-1-yl}-2-quinolin-7-yl-ethanone] | 16 nM
C[C@@H]1CN(c2scnc2-c2nc3ccccc3[nH]2)CCN1C(=O)Cc1ccc2nccnc2c1 [Example 121, 1-{(R)-4-[4-(1H-Benzoimidazol-2-yl)-thiazol-5-yl]-2-methyl-piperazin-1-yl}-2-quinoxalin-6-yl-ethanone] | 42 nM
C[C@@H]1CN(c2scnc2-c2nc3ccccc3[nH]2)CCN1C(=O)Cc1ccc2c(c1)NC(=O)CO2 [Example 122, 6-(2-{(R)-4-[4-(1H-Benzoimidazol-2-yl)-thiazol-5-yl]-2-methyl-piperazin-1-yl}-2-oxo-ethyl)-4H-benzo[1,4]oxazin-3-one] | 152 nM
C[C@@H]1CN(c2scnc2-c2nc3ccccc3[nH]2)CCN1C(=O)Cc1cccc2[nH]ccc12 [Example 123, 1-{(R)-4-[4-(1H-Benzoimidazol-2-yl)-thiazol-5-yl]-2-methyl-piperazin-1-yl}-2-(1H-indol-4-yl)-ethanone] | 69 nM

Reference: US9266876B2 (Actelion Pharmaceuticals Ltd., priority 2012, dated 2016)
